Source: paper PMC5748279, “Novel Antitubercular 6-Dialkylaminopyrimidine Carboxamides from Phenotypic Whole-Cell High Throughput Screening of a SoftFocus Library: Structure–Activity Relationship and Target Identification Studies” (Journal of Medicinal Chemistry, 2017)
Read-outs that look alike come from different tables or passages of the source.

Tests used:
(UniProt A0A0H3M9R5) = assay: biochemical; type: binding, Mycobacterium bovis BCG
(UniProt A0A0H3MB87) = assay: biochemical; type: binding, Mycobacterium bovis BCG
Sequence of (UniProt A0A0H3MB87) (A0A0H3MB87 1-463): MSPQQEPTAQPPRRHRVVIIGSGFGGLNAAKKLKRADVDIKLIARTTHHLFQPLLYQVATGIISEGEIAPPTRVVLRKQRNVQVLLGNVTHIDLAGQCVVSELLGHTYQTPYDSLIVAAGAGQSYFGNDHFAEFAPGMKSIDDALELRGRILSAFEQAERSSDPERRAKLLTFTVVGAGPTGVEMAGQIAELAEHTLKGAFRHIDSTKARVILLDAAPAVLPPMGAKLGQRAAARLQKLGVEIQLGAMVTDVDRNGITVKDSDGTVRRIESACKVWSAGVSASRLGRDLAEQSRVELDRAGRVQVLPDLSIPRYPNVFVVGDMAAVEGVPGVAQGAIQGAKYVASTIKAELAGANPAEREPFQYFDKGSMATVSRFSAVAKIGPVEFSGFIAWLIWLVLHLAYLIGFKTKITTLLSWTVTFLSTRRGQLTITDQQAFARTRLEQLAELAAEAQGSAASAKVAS

(UniProt A0A0H3MC72) = assay: biochemical; type: binding, Mycobacterium bovis BCG
Sequence of (UniProt A0A0H3MC72) (A0A0H3MC72 1-488): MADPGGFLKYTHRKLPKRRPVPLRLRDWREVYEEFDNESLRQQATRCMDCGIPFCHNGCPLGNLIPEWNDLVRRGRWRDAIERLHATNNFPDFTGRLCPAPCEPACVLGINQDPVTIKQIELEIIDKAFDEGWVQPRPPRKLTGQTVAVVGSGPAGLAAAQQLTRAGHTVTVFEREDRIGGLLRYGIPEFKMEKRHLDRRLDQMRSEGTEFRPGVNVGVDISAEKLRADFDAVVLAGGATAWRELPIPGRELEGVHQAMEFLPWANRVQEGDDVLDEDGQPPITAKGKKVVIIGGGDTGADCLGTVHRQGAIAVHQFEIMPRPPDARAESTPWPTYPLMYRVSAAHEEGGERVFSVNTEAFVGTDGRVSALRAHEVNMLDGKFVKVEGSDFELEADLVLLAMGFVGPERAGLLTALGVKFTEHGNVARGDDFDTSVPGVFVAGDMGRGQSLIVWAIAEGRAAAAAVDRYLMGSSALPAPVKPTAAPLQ

(UniProt A0A0H3MFG4) = assay: biochemical; type: binding, Mycobacterium bovis BCG
Sequence of (UniProt A0A0H3MFG4) (A0A0H3MFG4 1-834): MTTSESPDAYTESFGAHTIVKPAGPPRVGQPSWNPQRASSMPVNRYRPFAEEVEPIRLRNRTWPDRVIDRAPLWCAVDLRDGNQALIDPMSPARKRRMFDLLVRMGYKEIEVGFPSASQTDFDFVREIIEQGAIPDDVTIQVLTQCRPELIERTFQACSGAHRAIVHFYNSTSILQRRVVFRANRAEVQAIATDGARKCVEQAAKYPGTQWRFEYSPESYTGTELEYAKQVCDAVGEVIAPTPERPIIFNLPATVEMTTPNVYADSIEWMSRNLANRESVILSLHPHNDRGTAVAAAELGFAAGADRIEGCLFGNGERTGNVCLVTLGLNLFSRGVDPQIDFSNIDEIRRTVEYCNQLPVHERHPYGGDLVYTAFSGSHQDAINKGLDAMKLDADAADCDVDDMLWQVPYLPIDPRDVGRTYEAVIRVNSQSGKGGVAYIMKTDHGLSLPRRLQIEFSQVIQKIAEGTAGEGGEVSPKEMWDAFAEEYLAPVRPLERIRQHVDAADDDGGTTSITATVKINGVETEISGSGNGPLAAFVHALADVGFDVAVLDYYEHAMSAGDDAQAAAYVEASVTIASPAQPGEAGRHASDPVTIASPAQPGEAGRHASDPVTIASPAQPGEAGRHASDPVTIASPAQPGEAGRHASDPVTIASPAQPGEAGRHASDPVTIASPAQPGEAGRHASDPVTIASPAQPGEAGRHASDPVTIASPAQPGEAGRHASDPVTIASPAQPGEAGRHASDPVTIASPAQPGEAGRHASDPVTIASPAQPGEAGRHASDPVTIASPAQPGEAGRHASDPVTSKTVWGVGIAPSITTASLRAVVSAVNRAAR

[1] = test system: 13-resistant mutant of Mtb H37Rv; type: cell-based, Mycobacterium tuberculosis

Sequence of (UniProt A0A0H3M9R5) (A0A0H3M9R5 1-518): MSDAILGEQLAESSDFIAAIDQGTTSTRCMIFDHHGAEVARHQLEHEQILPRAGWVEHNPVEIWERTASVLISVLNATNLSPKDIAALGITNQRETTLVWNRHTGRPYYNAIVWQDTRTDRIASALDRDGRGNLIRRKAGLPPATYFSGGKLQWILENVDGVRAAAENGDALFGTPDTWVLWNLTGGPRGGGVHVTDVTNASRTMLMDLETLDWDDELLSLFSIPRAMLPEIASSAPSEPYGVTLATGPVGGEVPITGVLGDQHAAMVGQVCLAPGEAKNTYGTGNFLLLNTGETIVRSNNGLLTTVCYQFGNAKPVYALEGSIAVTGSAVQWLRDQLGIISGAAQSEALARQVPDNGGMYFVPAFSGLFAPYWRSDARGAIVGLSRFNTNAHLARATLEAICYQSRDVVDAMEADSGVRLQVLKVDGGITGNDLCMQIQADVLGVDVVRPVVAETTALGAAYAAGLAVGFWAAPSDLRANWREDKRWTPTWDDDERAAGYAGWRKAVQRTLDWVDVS

With O=C(Nc1ccccc1)c1ccc(=O)n(Cc2ccc(F)cc2)c1 [Compound 25, 1-(4-Fluorobenzyl)-6-oxo-N-phenyl-1,6-dihydropyridine-3-carboxamide] the IC50 ((UniProt A0A0H3M9R5); read-out: IC50) was ≥ 30 µM, the IC50 ((UniProt A0A0H3M9R5); read-out: pIC50 (converted)) was ≥ 30.2 µM and the IC50 ((UniProt A0A0H3MB87); read-out: IC50) was ≥ 30 µM. The IC50 ((UniProt A0A0H3MB87); read-out: pIC50 (converted)) was ≥ 30.2 µM, the IC50 ((UniProt A0A0H3MC72); read-out: IC50) was ≥ 30 µM and the IC50 ((UniProt A0A0H3MC72); read-out: pIC50 (converted)) was ≥ 30.2 µM. The IC50 ((UniProt A0A0H3MFG4); read-out: IC50) was ≥ 30 µM and the IC50 ((UniProt A0A0H3MFG4); read-out: pIC50 (converted)) was ≥ 30.2 µM.
For CN(Cc1ccc(F)cc1)c1cc(C(=O)Nc2ccccc2)ncn1 [Compound 10, 6-((4-Fluorobenzyl)(methyl)amino)-N-phenylpyrimidine-4-carboxamide], the “14 day GAST/Fe MIC99 against 13-resistant mutant” value (shortened to “14 day GAST/Fe MIC99”) [1] was >160 µM.
COc1ccc(NC(=O)c2cc(N(C)Cc3ccccc3)ncn2)cc1 [Compound 1, 6-(Benzyl(methyl)amino)-N-(4-methoxyphenyl)pyrimidine-4-carboxamide] was tested, and the “14 day GAST/Fe MIC99” value [1] was >160 µM.
With CN(Cc1ccc(C(F)(F)F)nc1)c1cc(C(=O)Nc2ccccc2)ncn1 [Compound 20, 6-(Methyl((6-(trifluoromethyl)pyridin-3-yl)methyl)amino)-N-phenylpyrimidine-4-carboxamide] the “14 day GAST/Fe MIC99” value [1] was >160 µM.
For COc1ccc(NC(=O)c2cc(N(C)Cc3cccc(F)c3)ncn2)cc1 [Compound 13, 6-((3-Fluorobenzyl)(methyl)amino)-N-(4-methoxyphenyl)pyrimidine-4-carboxamide], the “14 day GAST/Fe MIC99” value [1] was >160 µM.
For CC(C)Oc1ccc(NC(=O)c2cc(N(C)Cc3ccc(F)cc3)ncn2)cc1 [Compound 36, 6-((4-Fluorobenzyl)(methyl)amino)-N-(4-isopropoxyphenyl)pyrimidine-4-carboxamide], the “14 day GAST/Fe MIC99” value [1] was >160 µM.
